Where a name gives a salt, the structure may show the parent alone.
Molecular target: T1, human αVβ6 (Homo sapiens, UniProt P06756+P18564)
T1 construct: purchased R & D systems 3817-AV
Assay: human αVβ6 HTRF binding assay
Conditions: alternatively SPA-based assay
Experimental: All binding assays used the HTRF (homogeneous time resolved fluorescence) technology from Cisbio International, therefore all assays are described as HTRF binding assays. The assay results for the Examples are listed above together with the characterization data. The HTRF binding assays are established for the following integrins: human αVβ6, human αVβ1, human αVβ3, human αVβ5, and human αVβ8. All assays used the following assay buffer: 20 mM Tris, pH 7.4, 1 mM MgCl2, 1 mM MnCl2, 0.01% Tween 20, and 0.01% BSA. Alternatively, a SPA-based assay was used for evaluation of receptor binding.
The following describes the components and a representative procedure for the human αVβ6 HTRF binding assay: Recombinant human αVβ6 Integrin (R & D systems, 3817-AV) was biotinylated. Biotinylated human αVβ6 Integrin was added to assay vessel at a final concentration of 1.25 nM. FITC-conjugated fibronectin (Cytoskeleton, FNR02) was then added at the final concentration of 5 nM. The mixture was centrifuged at 600 rpm for three minutes using Thermo Fisher Heraeus Multifuge X3 centrifuge and then incubated at RT for an hour. Streptavidin Terbium (Cisbio international 610STLB) was then added at the final concentration of 0.625 nM. The resulting mixture was centrifuged at 600 rpm for three minutes using Thermo Fisher Heraeus Multifuge X3 centrifuge and then incubated at room temperature overnight in dark before reading HTRF signals.
The SPA-based assay was carried out according to the protocol and procedures similar to the ones described in the following reference with appropriate modifications to agents and ligands which are readily understood by one skilled in the art: Pachter J A, Zhang R, Mayer-Ezell R., “Scintillation proximity assay to measure binding of soluble fibronectin to antibody-captured αVβ1 integrin” Anal Biochem. 1995 Sep. 1; 230(1):101-7.

T1 sequence (P06756 31-992 limits assumed): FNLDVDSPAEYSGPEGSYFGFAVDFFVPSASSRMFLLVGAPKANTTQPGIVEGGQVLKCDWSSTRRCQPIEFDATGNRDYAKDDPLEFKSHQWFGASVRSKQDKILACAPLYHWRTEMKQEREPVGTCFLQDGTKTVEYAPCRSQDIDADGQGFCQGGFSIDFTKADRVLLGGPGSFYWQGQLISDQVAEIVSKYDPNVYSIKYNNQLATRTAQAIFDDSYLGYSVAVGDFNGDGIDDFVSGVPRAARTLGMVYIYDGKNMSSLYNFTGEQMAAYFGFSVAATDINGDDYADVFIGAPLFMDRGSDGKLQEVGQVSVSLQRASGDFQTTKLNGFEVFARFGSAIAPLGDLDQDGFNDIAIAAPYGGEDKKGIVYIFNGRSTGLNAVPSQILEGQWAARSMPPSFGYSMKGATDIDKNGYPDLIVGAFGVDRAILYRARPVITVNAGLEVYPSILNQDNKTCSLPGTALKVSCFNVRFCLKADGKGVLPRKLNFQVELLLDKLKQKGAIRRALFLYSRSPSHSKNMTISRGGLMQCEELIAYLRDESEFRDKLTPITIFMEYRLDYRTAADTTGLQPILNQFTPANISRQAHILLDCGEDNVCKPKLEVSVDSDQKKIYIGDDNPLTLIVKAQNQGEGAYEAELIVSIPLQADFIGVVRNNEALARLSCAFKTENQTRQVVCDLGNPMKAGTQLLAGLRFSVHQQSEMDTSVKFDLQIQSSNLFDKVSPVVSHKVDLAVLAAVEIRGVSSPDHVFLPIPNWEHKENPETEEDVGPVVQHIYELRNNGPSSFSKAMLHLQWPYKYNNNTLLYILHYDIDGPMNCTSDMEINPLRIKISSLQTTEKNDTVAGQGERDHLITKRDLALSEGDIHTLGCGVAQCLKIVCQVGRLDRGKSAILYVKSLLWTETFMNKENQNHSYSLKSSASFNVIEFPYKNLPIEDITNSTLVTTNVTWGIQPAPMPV
T1 sequence (P18564 22-707 limits assumed): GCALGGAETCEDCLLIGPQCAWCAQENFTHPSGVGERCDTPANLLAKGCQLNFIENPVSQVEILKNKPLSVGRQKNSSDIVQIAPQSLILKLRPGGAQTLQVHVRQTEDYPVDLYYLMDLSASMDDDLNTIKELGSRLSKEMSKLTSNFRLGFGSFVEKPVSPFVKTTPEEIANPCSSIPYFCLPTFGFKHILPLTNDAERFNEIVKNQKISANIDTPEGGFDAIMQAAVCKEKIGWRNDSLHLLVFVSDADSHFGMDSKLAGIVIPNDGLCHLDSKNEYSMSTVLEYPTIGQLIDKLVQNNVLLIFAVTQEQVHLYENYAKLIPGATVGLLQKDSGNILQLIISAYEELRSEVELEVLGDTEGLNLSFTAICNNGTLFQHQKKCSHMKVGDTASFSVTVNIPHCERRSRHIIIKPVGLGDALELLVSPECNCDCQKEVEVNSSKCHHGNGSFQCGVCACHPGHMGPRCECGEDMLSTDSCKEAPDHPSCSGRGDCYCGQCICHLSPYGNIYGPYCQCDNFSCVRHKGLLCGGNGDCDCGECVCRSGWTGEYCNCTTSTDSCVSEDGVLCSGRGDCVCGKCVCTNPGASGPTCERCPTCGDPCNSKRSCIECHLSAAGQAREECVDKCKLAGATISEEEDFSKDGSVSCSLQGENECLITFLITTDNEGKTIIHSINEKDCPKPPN

| SMILES | IC50 [nM] |
| --- | --- |
| COc1ccc([C@H](CC(=O)O)NC(=O)C2CC3(CC(CCc4ccc5c(n4)NCCC5)C3)C2)cn1 (mixture of isomers) [Example 50] | 110 |
| O=C(N[C@@H](CNC(=O)[C@H]1C[C@@H](Cc2ccc3c(n2)NCCC3)C1)C(=O)O)OCc1cccc(F)c1 (relative stereo) [Example 197] | 197 |
| COc1ccc([C@H](CC(=O)O)C2(F)CN(C(=O)CCCc3ccc4c(n3)NCCC4)C2)cn1 (single isomer, unassigned) [Example 17] | 29 |
| COc1ccc([C@@H](CC(=O)O)C2(F)CN(C(=O)CCCc3ccc4c(n3)NCCC4)C2)cn1 (single isomer, unassigned) [Example 18] | 170 |
| COc1ccc([C@H](CC(=O)O)N2CC(C)(CCCCc3ccc4c(n3)NCCC4)C2=O)cn1 (single isomer, unassigned) [Example 177] | 448 |
| COc1ccc([C@H](CC(=O)O)N2CC(C)(CCCCc3ccc4c(n3)NCCC4)C2=O)cn1 (single isomer, unassigned) [Example 178] | 102 |
| COc1ccc([C@H](CC(=O)O)N2CC(CCCc3ccc4c(n3)NCCC4)C2=O)cc1F (single isomer, unassigned) [Example 179] | 55 |
| COc1ccc([C@H](CC(=O)O)N2CC(CCCc3ccc4c(n3)NCCC4)C2=O)cc1F (single isomer, unassigned) [Example 180] | 17 |
| COc1ccc([C@H](CC(=O)O)N2CC(CCCc3ccc4c(n3)NCCC4)C2=O)cn1 (single isomer, unassigned) [Example 181] | 25 |
| COc1ccc([C@H](CC(=O)O)N2CC(CCCc3ccc4c(n3)NCCC4)C2=O)cn1 (single isomer, unassigned) [Example 182] | 5.7 |
| COc1ccc([C@H](CC(=O)O)N2CC(c3ccc(-c4ccc5c(n4)NCCC5)cc3)C2=O)cn1 (single isomer, unassigned) [Example 183] | 2 |
| COc1ccc([C@H](CC(=O)O)N2CC(c3ccc(-c4ccc5c(n4)NCCC5)cc3)C2=O)cn1 (single isomer, unassigned) [Example 184] | 4 |
| Cc1cc(C)c(S(=O)(=O)N[C@@H](CN2CC(CCCc3ccc4c(n3)NCCC4)C2=O)C(=O)O)c(C)c1 (single isomer, unassigned) [Example 185] | 18 |
| Cc1cc(C)c(S(=O)(=O)N[C@@H](CN2CC(CCCc3ccc4c(n3)NCCC4)C2=O)C(=O)O)c(C)c1 (single isomer, unassigned) [Example 186] | 0.61 |
| O=C(O)[C@H](CN1CC(CCCc2ccc3c(n2)NCCC3)C1=O)NS(=O)(=O)c1ccc(F)cc1 (single isomer, unassigned) [Example 187] | 24 |
| O=C(O)[C@H](CN1CC(CCCc2ccc3c(n2)NCCC3)C1=O)NS(=O)(=O)c1ccc(F)cc1 (single isomer, unassigned) [Example 188] | 3.34 |
| COc1ccc(C(NC(=O)C2CC(CCc3ccc4c(n3)NCCC4)C2)C(C)(C)C(=O)O)cn1 (single isomer, unassigned) [Example 189, 3-(6-methoxypyridin-3-yl)-2,2-dimethyl-3-(3-(2-(5,6,7,8-tetrahydro-1,8-naphthyridin-2-yl)ethyl)cyclobutane-1-carboxamido)propanoic acid] | 5000 |

| SMILES | IC50 [nM] |
| --- | --- |
| COc1ccc(C(NC(=O)C2CC(CCc3ccc4c(n3)NCCC4)C2)C(C)(C)C(=O)O)cn1 (single isomer, unassigned) [Example 190, 3-(6-methoxypyridin-3-yl)-2,2-dimethyl-3-(3-(2-(5,6,7,8-tetrahydro-1,8-naphthyridin-2-yl)ethyl)cyclobutane-1-carboxamido)propanoic acid] | 3300 |
| O=C(O)CC(NC(=O)[C@H]1C[C@H](CCc2ccc3c(n2)NCCC3)C1)c1cnc(C(F)(F)F)nc1 (single isomer, unassigned) [Example 193, 3-(trans-3-(2-(5,6,7,8-Tetrahydro-1,8-naphthyridin-2-yl)ethyl)cyclobutane-1-carboxamido)-3-(2-(trifluoromethyl)pyrimidin-5-yl)propanoic acid] | 5.7 |
| O=C(O)CC(NC(=O)[C@H]1C[C@H](CCc2ccc3c(n2)NCCC3)C1)c1cnc(C(F)(F)F)nc1 (single isomer, unassigned) [Example 194, 3-(trans-3-(2-(5,6,7,8-Tetrahydro-1,8-naphthyridin-2-yl)ethyl)cyclobutane-1-carboxamido)-3-(2-(trifluoromethyl)pyrimidin-5-yl)propanoic acid] | 21 |
| COc1ccc(C(CC(=O)O)C2CC(CCCCc3ccc4c(n3)NCCC4)C2)cn1 (single isomer, unassigned; diastereomer a) [Example 139, 3-(6-Methoxypyridin-3-yl)-3-(3-(4-(5,6,7,8-tetrahydro-1,8-naphthyridin-2-yl)butyl)cyclobutyl)propanoic acid (Diastereomer A)] | 26 |
| COc1ccc(C(CC(=O)O)C2CC(CCCCc3ccc4c(n3)NCCC4)C2)cn1 (single isomer, unassigned; diastereomer b) [Example 140, 3-(6-Methoxypyridin-3-yl)-3-(3-(4-(5,6,7,8-tetrahydro-1,8-naphthyridin-2-yl)butyl)cyclobutyl)propanoic acid (Diastereomer B)] | 7.7 |
| O=C(O)C[C@H](NC(=O)C1CC2(C1)CN(C(=O)CCc1ccc3c(n1)NCCC3)C2)c1cc(Cl)cc(Cl)c1 [Example 1, (S)-3-(3,5-Dichlorophenyl)-3-(2-(3-(5,6,7,8-tetrahydro-1,8-naphthyridin-2-yl)propanoyl)-2-azaspiro[3.3]heptane-6-carboxamido)propanoic acid, TFA] | 420 |
| COc1ccc([C@H](CC(=O)O)NC(=O)C2CC3(C2)CN(CCc2ccc4c(n2)NCCC4)C3)cn1 [Example 2, (S)-3-(6-Methoxypyridin-3-yl)-3-(2-(2-(5,6,7,8-tetrahydro-1,8-naphthyridin-2-yl)ethyl)-2-azaspiro[3.3]heptane-6-carboxamido)propanoic acid, 3TFA] | 13 |
| O=C(O)C[C@H](NC(=O)C1CC2(C1)CN(CCCc1ccc3c(n1)NCCC3)C2)c1cc(Cl)cc(Cl)c1 [Example 3, (S)-3-(3,5-Dichlorophenyl)-3-(2-(3-(5,6,7,8-tetrahydro-1,8-naphthyridin-2-yl)propyl)-2-azaspiro[3.3]heptane-6-carboxamido)propanoic acid] | 21 |
| Cc1nc2c(cc1CCN1CC3(CC(C(=O)N[C@@H](CC(=O)O)c4cc(Cl)cc(Cl)c4)C3)C1)CCCN2 [Example 4, (S)-3-(3,5-Dichlorophenyl)-3-(2-(2-(2-methyl-5,6,7,8-tetrahydro-1,8-naphthyridin-3-yl)ethyl)-2-azaspiro[3.3]heptane-6-carboxamido)propanoic acid] | 25 |
| Cc1cc(C)c(S(=O)(=O)N[C@@H](CNC(=O)C2CC3(CC(CCc4ccc5c(n4)NCCC5)C3)C2)C(=O)O)c(C)c1 (stereo partly drawn) [Example 5, (S)-3-(6-(2-(5,6,7,8-Tetrahydro-1,8-naphthyridin-2-yl)ethyl)spiro[3.3]heptane-2-carboxamido)-2-((2,4,6-trimethylphenyl)sulfonamido)propanoic acid] | 1.3 |
| O=C(N[C@@H](CC(=O)N1CC(CCc2ccc3c(n2)NCCC3)C1)C(=O)O)OCc1ccccc1 [Example 7, (S)-2-(((Benzyloxy)carbonyl)amino)-4-oxo-4-(3-(2-(5,6,7,8-tetrahydro-1,8-naphthyridin-2-yl)ethyl)azetidin-1-yl)butanoic acid] | 64 |
| O=C(N[C@@H](CCN1CC2(CC(CCc3ccc4c(n3)NCCC4)C2)C1)C(=O)O)OCc1ccccc1 [Example 8, (S)-2-(((Benzyloxy)carbonyl)amino)-4-(6-(2-(5,6,7,8-tetrahydro-1,8-naphthyridin-2-yl)ethyl)-2-azaspiro[3.3]heptan-2-yl)butanoic acid] | 2 |
| O=C(N[C@@H](COC1CN(CCCc2ccc3c(n2)NCCC3)C1)C(=O)O)OCc1ccccc1 [Example 10, N-((Benzyloxy)carbonyl)-O-(1-(3-(5,6,7,8-tetrahydro-1,8-naphthyridin-2-yl)propyl)azetidin-3-yl)-L-serine] | 0.8 |
| COc1ccc([C@H](CC(=O)O)NC2CN(CCCc3ccc4c(n3)NCCC4)C2)cn1 [Example 11, (S)-3-(6-Methoxypyridin-3-yl)-3-((1-(3-(5,6,7,8-tetrahydro-1,8-naphthyridin-2-yl)propyl)azetidin-3-yl)amino)propanoic acid] | 0.5 |
| COc1ccc([C@H](CC(=O)O)NC2CN(CCc3ccc4c(n3)NCCC4)C2)cn1 [Example 12, (S)-3-(6-Methoxypyridin-3-yl)-3-((1-(2-(5,6,7,8-tetrahydro-1,8-naphthyridin-2-yl)ethyl)azetidin-3-yl)amino)propanoic acid] | 3.6 |
| Cc1cc(C)c(S(=O)(=O)N[C@@H](CNC(=O)C2CN(CCCc3ccc4c(n3)NCCC4)C2)C(=O)O)c(C)c1 [Example 14, (S)-3-(1-(3-(5,6,7,8-Tetrahydro-1,8-naphthyridin-2-yl)propyl)azetidine-3-carboxamido)-2-(2,4,6-trimethylphenylsulfonamido)propanoic acid] | 0.7 |
